Source: patent US20090093423A2, “NOVEL 2-SUBSTITUTED METHYL PENAM DERIVATIVES” (Orchid Chemicals and Pharmaceuticals Limited, priority 2006, published 2009)

Target: Penicillinase enzyme
Test: β-Lactamase assay (Centa substrate)
Type: biochemical
Conditions: FIG. 1
Protocol: Representative novel compounds were subjected to β-lactamase assay to determine and compare their IC50 with that of Tazo as described elsewhere (Bebrone et. al, 2001, Antimicrob. Agents. Chemother. 45(6): 1868-1871; Jamieson et. al, 2003, Antimicrob. Agents. Chemother. 47(5): 1652-1657). Briefly enzyme inhibition assays with Tazo acid as the standard inhibitor for % inhibitions & IC50 value with optimized concentrations of Penicillinase enzyme & Centa β-lactamase substrate were performed.

Row | IC50 compared with Tazo | Compound
1 | comparatively lower | CCC[n+]1ccn(C[C@@]2(C)[C@H](C(=O)[O-])N3C(=O)C[C@H]3S2(=O)=O)n1 [Example 3, 1-{[(2S,3S,5R)-2-Carboxy-3-methyl-4,4,7-trioxo-4-thia-1-azabicyclo[3.2.0]hept-3-yl]methyl}-3-n-propyl-1H-1,2,3-triazol-3-ium]
2 | comparatively lower | C=CC[n+]1ccn(C[C@@]2(C)[C@H](C(=O)[O-])N3C(=O)C[C@H]3S2(=O)=O)n1 [Example 4, 1-{[(2S,3S,5R)-2-Carboxy-3-methyl-4,4,7-trioxo-4-thia-1-azabicyclo[3.2.0]hept-3-yl]methyl}-3-allyl-1H-1,2,3-triazol-3-ium]
3 | comparatively lower | C[C@]1(Cn2cc[n+](CC(N)=O)n2)[C@H](C(=O)[O-])N2C(=O)C[C@H]2S1(=O)=O [Example 5, 1-{[(2S,3S,5R)-2-Carboxy-3-methyl-4,4,7-trioxo-4-thia-1-azabicyclo[3.2.0]hept-3-yl]methyl}-3-(2-amino-2-oxoethyl)-1H-1,2,3-triazol-3-ium]
4 | comparatively lower | C[C@]1(Cn2cc[n+](CC(=O)N3CCOCC3)n2)[C@H](C(=O)[O-])N2C(=O)C[C@H]2S1(=O)=O [Example 7, 1-{[(2S,3S,5R)-2-Carboxy-3-methyl-4,4,7-trioxo-4-thia-1-azabicyclo[3.2.0]hept-3-yl]methyl}-3-(2-morpholin-4-yl-2-oxoethyl)-1H-1,2,3-triazol-3-ium]
